Results reported in patent EP3025717A1, “SYNERGISTIC PHARMACEUTICAL COMPOSITION OF TWO ANALGESICS HAVING A DISTINCT PHARMACOKINETIC PROFILE” (FARMACÉUTICOS RAYERE, S.A., priority 2013, dated 2014).

Tests used:
[1] = test system: COX-1 and COX-2; conditions: in vitro; cited from earlier work
[2] = test system: acute inflammatory pain; test: Formalin model of acute inflammatory pain in mice, isobolographic analysis; format: in vivo, ICR male mice; conditions: Mus musculus, ip; individual drug, intraperitoneal, 20 minutes before formalin, phase 2 (15 to 45 minutes); read-out: DE30 (dose causing 30% anti-nociceptive effect)
Method: The duration of the experiment was always as short as possible, considering that the number of animals used was the minimum necessary. […] Transparent cylinders of 20 cm diameter X 40 cm high were used, with mirrors. At the start of the experiment, the mice were placed in cylinders for a period of 60 minutes to settle. After this time, the mice were removed for the administration of 20 μL formalin (3% formaldehyde solution). Immediately after formalin administration, the mouse was returned to the cylinder for observing the characteristic behaviour, which consists in counting the number of licks of the injected paw during 5-minute periods to a total time of 45 minutes. […] Groups of animals were used with an average n ≥ 6. Physiological saline solution (0.9) was administered intraperitoneally as a control of each experimental set. […] The percentage of anti-nociception was plotted according to the dose of both analgesics individually or in combination. The data of the dose-response curve were analysed by a variance analysis (ANOVA), followed by a Tukey test. […] The doses used for this assay correspond to those reported as effective in humans, considering that an average human weighs 60 kg.

[3] = cited from earlier work

**Q.** Which “ratio Cl50COX-2/Cl50COX-1 (inhibits more the constitutive COX-1 than the COX-2)” value [1] does the source give for `CC(=O)Oc1ccccc1C(=O)O` [aspirin, acetylsalicylic acid] here?
**A.** The value was 166 times.

**Q.** What does the source list for `Cc1cnc(NC(=O)C2=C(O)c3ccccc3S(=O)(=O)N2C)s1` [MXC, 4-hydroxy-2-methyl-N-(5-methyl-2-thiazolyl)-2H-1,2-benzothiazine-3-carboxamide-1,1-dioxide]?
**A.** ED30 [2]: 0.12 ± 0.004 mg/kg; percentage of native drug in the faeces ([3]; faeces): 1.6%; administered dose excreted in the urine ([3]; mostly as metabolites): 43%; absolute bio-availability ([3]; oral administration): 90%; Tmax ([3]; plasma): 5 to 6 h; increase of the maximum plasma concentrations by food ([3]; presence of food): 22%; plasma concentrations observed in synovial fluid ([3]; synovial fluid): 40-50%; percentage of native drug in the urine ([3]; urine): 0.2%
